Experimental data taken from US8192962B2, “Processes for detecting toxic substances” (Daikin Industries, Ltd., priority 2001, dated 2012).

System: Stress protein genes
Test: DNA chip mRNA expression in yeast, stress protein genes (Table 6)
Assay type: cell-based, Saccharomyces cerevisiae S288C
Procedure, shortened: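 Value is the scanned fluorescence intensity ratio of exposed versus chemical-free cells. Log-phase S288C yeast in YPD at 25° C. received one toxic substance for two hours, dosed to slow growth without killing; Cy3/Cy5-labeled cDNA from oligo-dT-purified mRNA was hybridized to a whole-genome chip at 65° C.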

## S=C([S-])NCCNC(=S)[S-].[Zn+2] [(11), zinc N,N′-ethylenebis(dithiocarbamate)]
Yeast gene YAL005C
  The level of expressed mRNA in the presence of chemical substance/The level of expressed mRNA in the absence of chemical substance: 1.0
Yeast gene YAL015C
  The level of expressed mRNA in the presence of chemical substance/The level of expressed mRNA in the absence of chemical substance: 1.4
Yeast gene YBL075C
  The level of expressed mRNA in the presence of chemical substance/The level of expressed mRNA in the absence of chemical substance: 1.6
Yeast gene YBL093C
  The level of expressed mRNA in the presence of chemical substance/The level of expressed mRNA in the absence of chemical substance: 1.3
Yeast gene YBR044C
  The level of expressed mRNA in the presence of chemical substance/The level of expressed mRNA in the absence of chemical substance: 1.1
Yeast gene YBR054W
  The level of expressed mRNA in the presence of chemical substance/The level of expressed mRNA in the absence of chemical substance: 1.8
Yeast gene YBR067C
  The level of expressed mRNA in the presence of chemical substance/The level of expressed mRNA in the absence of chemical substance: 3.1
Yeast gene YBR072W
  The level of expressed mRNA in the presence of chemical substance/The level of expressed mRNA in the absence of chemical substance: 6.3
Yeast gene YBR126C
  The level of expressed mRNA in the presence of chemical substance/The level of expressed mRNA in the absence of chemical substance: 1.1
Yeast gene YBR169C
  The level of expressed mRNA in the presence of chemical substance/The level of expressed mRNA in the absence of chemical substance: 2.2
Yeast gene YCL035C
  The level of expressed mRNA in the presence of chemical substance/The level of expressed mRNA in the absence of chemical substance: 2.1
Yeast gene YCR021C
  The level of expressed mRNA in the presence of chemical substance/The level of expressed mRNA in the absence of chemical substance: 0.6
Yeast gene YCR060W
  The level of expressed mRNA in the presence of chemical substance/The level of expressed mRNA in the absence of chemical substance: 1.2
Yeast gene YCR083W
  The level of expressed mRNA in the presence of chemical substance/The level of expressed mRNA in the absence of chemical substance: 1.8
Yeast gene YDL022W
  The level of expressed mRNA in the presence of chemical substance/The level of expressed mRNA in the absence of chemical substance: 2.8
Yeast gene YDL025C
  The level of expressed mRNA in the presence of chemical substance/The level of expressed mRNA in the absence of chemical substance: 1.5
Yeast gene YDR033W
  The level of expressed mRNA in the presence of chemical substance/The level of expressed mRNA in the absence of chemical substance: 0.7
Yeast gene YDR077W
  The level of expressed mRNA in the presence of chemical substance/The level of expressed mRNA in the absence of chemical substance: 6.8
Yeast gene YDR098C
  The level of expressed mRNA in the presence of chemical substance/The level of expressed mRNA in the absence of chemical substance: 1.4
Yeast gene YDR155C
  The level of expressed mRNA in the presence of chemical substance/The level of expressed mRNA in the absence of chemical substance: 3.8
Yeast gene YDR258C
  The level of expressed mRNA in the presence of chemical substance/The level of expressed mRNA in the absence of chemical substance: 1.7
Yeast gene YDR293C
  The level of expressed mRNA in the presence of chemical substance/The level of expressed mRNA in the absence of chemical substance: 1.1
Yeast gene YDR436W
  The level of expressed mRNA in the presence of chemical substance/The level of expressed mRNA in the absence of chemical substance: 2.0
Yeast gene YDR513W
  The level of expressed mRNA in the presence of chemical substance/The level of expressed mRNA in the absence of chemical substance: 2.0
Yeast gene YDR519W
  The level of expressed mRNA in the presence of chemical substance/The level of expressed mRNA in the absence of chemical substance: 1.2
Yeast gene YEL030W
  The level of expressed mRNA in the presence of chemical substance/The level of expressed mRNA in the absence of chemical substance: 1.7
Yeast gene YEL039C
  The level of expressed mRNA in the presence of chemical substance/The level of expressed mRNA in the absence of chemical substance: 1.7
Yeast gene YER042W
  The level of expressed mRNA in the presence of chemical substance/The level of expressed mRNA in the absence of chemical substance: 1.8
Yeast gene YER057C
  The level of expressed mRNA in the presence of chemical substance/The level of expressed mRNA in the absence of chemical substance: 1.8
Yeast gene YER103W
  The level of expressed mRNA in the presence of chemical substance/The level of expressed mRNA in the absence of chemical substance: 1.8
Yeast gene YER125W
  The level of expressed mRNA in the presence of chemical substance/The level of expressed mRNA in the absence of chemical substance: 1.0
Yeast gene YFL014W
  The level of expressed mRNA in the presence of chemical substance/The level of expressed mRNA in the absence of chemical substance: 5.0
Yeast gene YFL016C
  The level of expressed mRNA in the presence of chemical substance/The level of expressed mRNA in the absence of chemical substance: 1.2
Yeast gene YFL020C
  The level of expressed mRNA in the presence of chemical substance/The level of expressed mRNA in the absence of chemical substance: 1.2
Yeast gene YFR052W
  The level of expressed mRNA in the presence of chemical substance/The level of expressed mRNA in the absence of chemical substance: 0.9
Yeast gene YGL073W
  The level of expressed mRNA in the presence of chemical substance/The level of expressed mRNA in the absence of chemical substance: 0.8
Yeast gene YGL115W
  The level of expressed mRNA in the presence of chemical substance/The level of expressed mRNA in the absence of chemical substance: 1.0
Yeast gene YGL181W
  The level of expressed mRNA in the presence of chemical substance/The level of expressed mRNA in the absence of chemical substance: 1.2
Yeast gene YGR088W
  The level of expressed mRNA in the presence of chemical substance/The level of expressed mRNA in the absence of chemical substance: 3.9
Yeast gene YHL028W
  The level of expressed mRNA in the presence of chemical substance/The level of expressed mRNA in the absence of chemical substance: 0.7
Yeast gene YHL046C
  The level of expressed mRNA in the presence of chemical substance/The level of expressed mRNA in the absence of chemical substance: 0.4
Yeast gene YHR030C
  The level of expressed mRNA in the presence of chemical substance/The level of expressed mRNA in the absence of chemical substance: 1.5
Yeast gene YHR057C
  The level of expressed mRNA in the presence of chemical substance/The level of expressed mRNA in the absence of chemical substance: 1.6
Yeast gene YHR104W
  The level of expressed mRNA in the presence of chemical substance/The level of expressed mRNA in the absence of chemical substance: 2.6
Yeast gene YIL011W
  The level of expressed mRNA in the presence of chemical substance/The level of expressed mRNA in the absence of chemical substance: 2.5
Yeast gene YIL033C
  The level of expressed mRNA in the presence of chemical substance/The level of expressed mRNA in the absence of chemical substance: 1.8
Yeast gene YIR037W
  The level of expressed mRNA in the presence of chemical substance/The level of expressed mRNA in the absence of chemical substance: 3.0
Yeast gene YIR038C
  The level of expressed mRNA in the presence of chemical substance/The level of expressed mRNA in the absence of chemical substance: 3.4
Yeast gene YJL128C
  The level of expressed mRNA in the presence of chemical substance/The level of expressed mRNA in the absence of chemical substance: 0.6
Yeast gene YJL158C
  The level of expressed mRNA in the presence of chemical substance/The level of expressed mRNA in the absence of chemical substance: 1.9
Yeast gene YJL159W
  The level of expressed mRNA in the presence of chemical substance/The level of expressed mRNA in the absence of chemical substance: 1.2
Yeast gene YJL165C
  The level of expressed mRNA in the presence of chemical substance/The level of expressed mRNA in the absence of chemical substance: 1.7
Yeast gene YJR045C
  The level of expressed mRNA in the presence of chemical substance/The level of expressed mRNA in the absence of chemical substance: 1.4
Yeast gene YJR090C
  The level of expressed mRNA in the presence of chemical substance/The level of expressed mRNA in the absence of chemical substance: 0.4
Yeast gene YKL161C
  The level of expressed mRNA in the presence of chemical substance/The level of expressed mRNA in the absence of chemical substance: 3.1
Yeast gene YKL163W
  The level of expressed mRNA in the presence of chemical substance/The level of expressed mRNA in the absence of chemical substance: 1.3
Yeast gene YKL164C
  The level of expressed mRNA in the presence of chemical substance/The level of expressed mRNA in the absence of chemical substance: 1.0
Yeast gene YKL210W
  The level of expressed mRNA in the presence of chemical substance/The level of expressed mRNA in the absence of chemical substance: 1.4
Yeast gene YKR053C
  The level of expressed mRNA in the presence of chemical substance/The level of expressed mRNA in the absence of chemical substance: 0.5
Yeast gene YLL024C
  The level of expressed mRNA in the presence of chemical substance/The level of expressed mRNA in the absence of chemical substance: 1.6
Yeast gene YLL026W
  The level of expressed mRNA in the presence of chemical substance/The level of expressed mRNA in the absence of chemical substance: 1.7
Yeast gene YLL039C
  The level of expressed mRNA in the presence of chemical substance/The level of expressed mRNA in the absence of chemical substance: 1.1
Yeast gene YLL060C
  The level of expressed mRNA in the presence of chemical substance/The level of expressed mRNA in the absence of chemical substance: 14.1
Yeast gene YLR006C
  The level of expressed mRNA in the presence of chemical substance/The level of expressed mRNA in the absence of chemical substance: 1.5
Yeast gene YLR109W
  The level of expressed mRNA in the presence of chemical substance/The level of expressed mRNA in the absence of chemical substance: 1.5
Yeast gene YLR259C
  The level of expressed mRNA in the presence of chemical substance/The level of expressed mRNA in the absence of chemical substance: 3.0
Yeast gene YML007W
  The level of expressed mRNA in the presence of chemical substance/The level of expressed mRNA in the absence of chemical substance: 1.3
Yeast gene YML070W
  The level of expressed mRNA in the presence of chemical substance/The level of expressed mRNA in the absence of chemical substance: 1.5
Yeast gene YMR021C
  The level of expressed mRNA in the presence of chemical substance/The level of expressed mRNA in the absence of chemical substance: 0.9
Yeast gene YMR173W
  The level of expressed mRNA in the presence of chemical substance/The level of expressed mRNA in the absence of chemical substance: 3.2
Yeast gene YMR186W
  The level of expressed mRNA in the presence of chemical substance/The level of expressed mRNA in the absence of chemical substance: 1.1
Yeast gene YNL064C
  The level of expressed mRNA in the presence of chemical substance/The level of expressed mRNA in the absence of chemical substance: 0.9
Yeast gene YNL160W
  The level of expressed mRNA in the presence of chemical substance/The level of expressed mRNA in the absence of chemical substance: 5.4
Yeast gene YNL241C
  The level of expressed mRNA in the presence of chemical substance/The level of expressed mRNA in the absence of chemical substance: 3.0
Yeast gene YNR076W
  The level of expressed mRNA in the presence of chemical substance/The level of expressed mRNA in the absence of chemical substance: 1.4
Yeast gene YOL064C
  The level of expressed mRNA in the presence of chemical substance/The level of expressed mRNA in the absence of chemical substance: 1.0
Yeast gene YOL161C
  The level of expressed mRNA in the presence of chemical substance/The level of expressed mRNA in the absence of chemical substance: 1.5
Yeast gene YOR008C
  The level of expressed mRNA in the presence of chemical substance/The level of expressed mRNA in the absence of chemical substance: 1.0
Yeast gene YOR009W
  The level of expressed mRNA in the presence of chemical substance/The level of expressed mRNA in the absence of chemical substance: 1.4
Yeast gene YOR010C
  The level of expressed mRNA in the presence of chemical substance/The level of expressed mRNA in the absence of chemical substance: 1.2
Yeast gene YOR027W
  The level of expressed mRNA in the presence of chemical substance/The level of expressed mRNA in the absence of chemical substance: 1.3
Yeast gene YOR208W
  The level of expressed mRNA in the presence of chemical substance/The level of expressed mRNA in the absence of chemical substance: 1.2
Yeast gene YPL059W
  The level of expressed mRNA in the presence of chemical substance/The level of expressed mRNA in the absence of chemical substance: 1.6
Yeast gene YPL106C
  The level of expressed mRNA in the presence of chemical substance/The level of expressed mRNA in the absence of chemical substance: 1.3
Yeast gene YPL140C
  The level of expressed mRNA in the presence of chemical substance/The level of expressed mRNA in the absence of chemical substance: 0.8
Yeast gene YPL194W
  The level of expressed mRNA in the presence of chemical substance/The level of expressed mRNA in the absence of chemical substance: 0.9
Yeast gene YPL223C
  The level of expressed mRNA in the presence of chemical substance/The level of expressed mRNA in the absence of chemical substance: 1.8
Yeast gene YPL240C
  The level of expressed mRNA in the presence of chemical substance/The level of expressed mRNA in the absence of chemical substance: 1.0
Yeast gene YPR005C
  The level of expressed mRNA in the presence of chemical substance/The level of expressed mRNA in the absence of chemical substance: 0.4
Yeast gene YPR026W
  The level of expressed mRNA in the presence of chemical substance/The level of expressed mRNA in the absence of chemical substance: 1.6
